Reference: patent US6737383B1, “Herbicidal oxadiazolidines” (priority 1999, dated 2004)

Legend:
morningglory = experiment: Test B pre/postemergence morningglory; type: in vivo, Ipomoea hederacea
Outline: (§1)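 Test chemicals in a non-phytotoxic solvent mixture with surfactant were sprayed preemergence onto planted seeds and postemergence onto plants 2 to 18 cm tall (1- to 4-leaf stage). After twelve to sixteen days in a greenhouse, injury was visually rated against untreated controls from 0 (no effect) to 10 (complete control).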

cocklebur = experiment: Test B pre/postemergence cocklebur; type: in vivo, Xanthium strumarium
Outline: as §1

smallflower flatsedge = experiment: Test B flood test smallflower flatsedge; type: in vivo, Cyperus difformis
Outline: (§2)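 Each value is a visual injury score relative to controls, with 10 meaning complete control and 0 no effect. Evaluation took place twelve to sixteen days after the 2-leaf-stage plants were treated and kept in the greenhouse.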

soybean = experiment: Test B pre/postemergence soybean; type: in vivo, Glycine max
Outline: as §1

rice = experiment: Test B flood test rice; type: in vivo, Oryza sativa
Outline: as §2

bedstraw = experiment: Test B pre/postemergence bedstraw; type: in vivo, Galium aparine
Outline: as §1

pigweed = experiment: Test B pre/postemergence pigweed; type: in vivo, Amaranthus retroflexus
Outline: as §1

sugar beet = experiment: Test B pre/postemergence sugar beet; type: in vivo, Beta vulgaris
Outline: as §1

blackgrass = experiment: Test B pre/postemergence blackgrass; type: in vivo, Alopecurus myosuroides
Outline: as §1

crabgrass = experiment: Test B pre/postemergence crabgrass; type: in vivo, Digitaria sanguinalis
Outline: as §1

velvetleaf = experiment: Test B pre/postemergence velvetleaf; type: in vivo, Abutilon theophrasti
Outline: as §1

purple nutsedge = experiment: Test B pre/postemergence purple nutsedge; type: in vivo, Cyperus rotundus; settings: Postemergence
Outline: as §1

surinam grass = experiment: Test B pre/postemergence surinam grass; type: in vivo, Brachiaria decumbens
Outline: as §1

wheat = experiment: Test B pre/postemergence wheat; type: in vivo, Triticum aestivum
Outline: as §1

wild oat = experiment: Test B pre/postemergence wild oat; type: in vivo, Avena fatua
Outline: as §1

duck salad = experiment: Test B flood test duck salad; type: in vivo, Heteranthera limosa
Outline: as §2

giant foxtail = experiment: Test B pre/postemergence giant foxtail; type: in vivo, Setaria faberii
Outline: as §1

rape = experiment: Test B pre/postemergence rape; type: in vivo, Brassica napus
Outline: as §1

bamyardgrass = experiment: Test B flood test barnyardgrass; type: in vivo, Echinochloa crus-galli
Outline: as §2

corn = experiment: Test B pre/postemergence corn; type: in vivo, Zea mays
Outline: as §1

[1] = Preemergence, Rate 62 g/ha, scale of 0 to 10 where 0 is no effect and 10 is complete control
[2] = Preemergence, Rate 250 g/ha, scale of 0 to 10 where 0 is no effect and 10 is complete control
[3] = Preemergence, Rate 500 g/ha, scale of 0 to 10 where 0 is no effect and 10 is complete control
[4] = Rate 125 g/ha, Preemergence, scale of 0 to 10 where 0 is no effect and 10 is complete control
[5] = Rate 500 g/ha, Postemergence, scale 0 to 10, 0 no effect, 10 complete control
[6] = Rate 62 g/ha, Postemergence, scale of 0 to 10 where 0 is no effect and 10 is complete control
[7] = Rate 125 g/ha, Postemergence, scale 0 to 10
[8] = Rate 62 g/ha, headed Pre-emergence (flood test species), scale 0 to 10 (0 no effect, 10 complete control)
[9] = Rate 125 g/ha, Pre-emergence, flood test species, scale 0 to 10 where 0 is no effect and 10 is complete control
[10] = Rate 250 g/ha, Pre-emergence, flood-test species, scale 0 to 10, 0 is no effect, 10 is complete control
[11] = Rate 500 g/ha, Pre-emergence, flood test species, scale 0 to 10 (0 no effect, 10 complete control)

For `CC(C)N(C(=O)n1oc(=O)n(CCC2OCCCO2)c1=O)c1ccc(F)cc1` [Compound 255], the “Morningglory plant response rating” value (morningglory; [1]) was 0, the “Morningglory plant response rating” value (morningglory; [2]) was 0 and the “Plant response rating, Morningglory” value (morningglory; [3]) was 0. The “Morningglory plant response rating” value (morningglory; [4]) was 0, the “Plant response rating (0 to 10; 0 is no effect, 10 is complete control), Morningglory” value (morningglory; Rate 250 g/ha, Postemergence) was 8 and the “Morningglory plant response rating” value (morningglory; [5]) was 8. For the same compound, the “Cocklebur plant response rating” value (cocklebur; [1]) was 0, the “Cocklebur plant response rating” value (cocklebur; [2]) was 0 and the “Plant response rating, Cocklebur” value (cocklebur; [3]) was 0. For the same compound, the “Cocklebur plant response rating” value (cocklebur; [6]) was 0, the “Cocklebur plant response rating” value (cocklebur; [7]) was 0 and the “Cocklebur plant response rating” value (cocklebur; [4]) was 0. For the same compound, the “Plant response rating (0 to 10; 0 is no effect, 10 is complete control), Cocklebur” value (cocklebur; Rate 250 g/ha, Postemergence) was 0, the “Cocklebur plant response rating” value (cocklebur; [5]) was 2 and the “S. Flatsedge plant response rating” value (smallflower flatsedge; [8]) was 0. The “S. Flatsedge plant response rating” value (smallflower flatsedge; [9]) was 0, the “S. Flatsedge plant response rating” value (smallflower flatsedge; [10]) was 0 and the “S. Flatsedge plant response rating” value (smallflower flatsedge; [11]) was 0. For the same compound, the “Soybean plant response rating” value (soybean; [1]) was 0, the “Soybean plant response rating” value (soybean; [2]) was 0 and the “Plant response rating, Soybean” value (soybean; [3]) was 0. The “Soybean plant response rating” value (soybean; [4]) was 0, the “Soybean plant response rating” value (soybean; [5]) was 6 and the “Rice plant response rating” value (rice; [8]) was 0. The “Rice plant response rating” value (rice; [9]) was 0, the “Rice plant response rating” value (rice; [10]) was 0 and the “Rice plant response rating” value (rice; [11]) was 0. The “Bedstraw plant response rating” value (bedstraw; [1]) was 0, the “Bedstraw plant response rating” value (bedstraw; [2]) was 0 and the “Plant response rating, Bedstraw” value (bedstraw; [3]) was 0. The “Bedstraw plant response rating” value (bedstraw; [6]) was 0, the “Bedstraw plant response rating” value (bedstraw; [7]) was 0 and the “Bedstraw plant response rating” value (bedstraw; [4]) was 0. For the same compound, the “Plant response rating (0 to 10; 0 is no effect, 10 is complete control), Bedstraw” value (bedstraw; Rate 250 g/ha, Postemergence) was 2, the “Bedstraw plant response rating” value (bedstraw; [5]) was 8 and the “Redroot pigweed plant response rating” value (pigweed; [1]) was 0. For the same compound, the “Redroot pigweed plant response rating” value (pigweed; [2]) was 5, the “Plant response rating, Redroot pigweed” value (pigweed; [3]) was 10 and the “Redroot pigweed plant response rating” value (pigweed; [4]) was 2. The “Plant response rating (0 to 10; 0 is no effect, 10 is complete control), Redroot pigweed” value (pigweed; Rate 250 g/ha, Postemergence) was 2, the “Redroot pigweed plant response rating” value (pigweed; [5]) was 8 and the “Sugarbeets plant response rating” value (sugar beet; [1]) was 0. The “Sugarbeets plant response rating” value (sugar beet; [2]) was 6, the “Plant response rating, Sugarbeets” value (sugar beet; [3]) was 7 and the “Sugarbeets plant response rating” value (sugar beet; [4]) was 3. The “Sugarbeets plant response rating” value (sugar beet; [5]) was 3, the “Blackgrass plant response rating” value (blackgrass; [1]) was 10 and the “Blackgrass plant response rating” value (blackgrass; [2]) was 10. For the same compound, the “Plant response rating, Blackgrass” value (blackgrass; [3]) was 10, the “Blackgrass plant response rating” value (blackgrass; [6]) was 0 and the “Blackgrass plant response rating” value (blackgrass; [7]) was 2. The “Blackgrass plant response rating” value (blackgrass; [4]) was 10, the “Plant response rating (0 to 10; 0 is no effect, 10 is complete control), Blackgrass” value (blackgrass; Rate 250 g/ha, Postemergence) was 7 and the “Blackgrass plant response rating” value (blackgrass; [5]) was 9. For the same compound, the “Crabgrass plant response rating” value (crabgrass; [1]) was 0, the “Crabgrass plant response rating” value (crabgrass; [2]) was 7 and the “Plant response rating, Crabgrass” value (crabgrass; [3]) was 9. The “Crabgrass plant response rating” value (crabgrass; [4]) was 3, the “Plant response rating (0 to 10; 0 is no effect, 10 is complete control), Crabgrass” value (crabgrass; Rate 250 g/ha, Postemergence) was 2 and the “Crabgrass plant response rating” value (crabgrass; [5]) was 3. For the same compound, the “Velvetleaf plant response rating” value (velvetleaf; [1]) was 0, the “Velvetleaf plant response rating” value (velvetleaf; [2]) was 5 and the “Plant response rating, Velvetleaf” value (velvetleaf; [3]) was 7. The “Velvetleaf plant response rating” value (velvetleaf; [4]) was 0, the “Velvetleaf plant response rating” value (velvetleaf; [5]) was 1 and the “Plant response rating (0 to 10; 0 is no effect, 10 is complete control), Nutsedge” value (purple nutsedge; Rate 250 g/ha) was 0. For the same compound, the “Nutsedge plant response rating” value (purple nutsedge; Rate 500 g/ha, scale 0 to 10, 0 no effect, 10 complete control) was 6, the “B. signalgrass plant response rating” value (surinam grass; [1]) was 0 and the “B. signalgrass plant response rating” value (surinam grass; [2]) was 3. For the same compound, the “Plant response rating, B. signalgrass” value (surinam grass; [3]) was 9, the “B. signalgrass plant response rating” value (surinam grass; [6]) was 0 and the “B. signalgrass plant response rating” value (surinam grass; Rate 125 g/ha, Postemergence, scale 0 (no effect) to 10 (complete control)) was 0. For the same compound, the “B. signalgrass plant response rating” value (surinam grass; [4]) was 2, the “Plant response rating (0 to 10; 0 is no effect, 10 is complete control), B. signalgrass” value (surinam grass; Rate 250 g/ha, Postemergence) was 2 and the “B. signalgrass plant response rating” value (surinam grass; [5]) was 8. The “Wheat plant response rating” value (wheat; [1]) was 0, the “Wheat plant response rating” value (wheat; [2]) was 4 and the “Plant response rating, Wheat” value (wheat; [3]) was 8. For the same compound, the “Wheat plant response rating” value (wheat; [4]) was 0, the “Wheat plant response rating” value (wheat; [5]) was 8 and the “Wild oats plant response rating” value (wild oat; [1]) was 0. For the same compound, the “Wild oats plant response rating” value (wild oat; [2]) was 5, the “Plant response rating, Wild oats” value (wild oat; [3]) was 10 and the “Wild oats plant response rating” value (wild oat; [4]) was 2. The “Wild oats plant response rating” value (wild oat; [5]) was 4, the “Ducksalad plant response rating” value (duck salad; [8]) was 0 and the “Ducksalad plant response rating” value (duck salad; [9]) was 0. For the same compound, the “Ducksalad plant response rating” value (duck salad; [10]) was 0, the “Ducksalad plant response rating” value (duck salad; [11]) was 0 and the “Giant foxtail plant response rating” value (giant foxtail; [1]) was 8. For the same compound, the “Giant foxtail plant response rating” value (giant foxtail; [2]) was 10, the “Plant response rating, Giant foxtail” value (giant foxtail; [3]) was 10 and the “Giant foxtail plant response rating” value (giant foxtail; [4]) was 9. For the same compound, the “Plant response rating (0 to 10; 0 is no effect, 10 is complete control), Giant foxtail” value (giant foxtail; Rate 250 g/ha, Postemergence) was 6, the “Giant foxtail plant response rating” value (giant foxtail; [5]) was 8 and the “Rape plant response rating” value (rape; [1]) was 0. For the same compound, the “Rape plant response rating” value (rape; [2]) was 0, the “Plant response rating, Rape” value (rape; [3]) was 5 and the “Rape plant response rating” value (rape; [4]) was 0. For the same compound, the “Plant response rating (0 to 10; 0 is no effect, 10 is complete control), Rape” value (rape; Rate 250 g/ha, Postemergence) was 3, the “Rape plant response rating” value (rape; [5]) was 3 and the “Barnyardgrass plant response rating” value (bamyardgrass; [8]) was 0. For the same compound, the “Barnyardgrass plant response rating” value (bamyardgrass; [9]) was 0, the “Barnyardgrass plant response rating” value (bamyardgrass; [10]) was 0 and the “Barnyardgrass plant response rating” value (bamyardgrass; [11]) was 0. For the same compound, the “Corn plant response rating” value (corn; [1]) was 0, the “Corn plant response rating” value (corn; [2]) was 0 and the “Plant response rating, Corn” value (corn; [3]) was 8. The “Corn plant response rating” value (corn; [6]) was 0, the “Corn plant response rating” value (corn; [7]) was 0 and the “Corn plant response rating” value (corn; [4]) was 0. The “Plant response rating (0 to 10; 0 is no effect, 10 is complete control), Corn” value (corn; Rate 250 g/ha, Postemergence) was 0 and the “Corn plant response rating” value (corn; [5]) was 6.
